Data: patent US20090111801A1, “SUBSTITUTED PYRAZINONE DERIVATIVES FOR USE AS A MEDICINE” (Janssen Pharmaceutica N.V., priority 2006, published 2009)

Key:
5HT-Transporter = target: T1, 5HT-Transporter (Homo sapiens, UniProt P31645); test: Binding experiment for the 5HT-transporter ([3H]paroxetine, human platelet membranes); conditions: [3H]paroxetine 0.5 nM; for IC50: read-out: h-5HTT pIC50 (converted)
T1 construct: Human platelet membranes (Oceanix Biosciences Corporation, Hanover, Md., USA) were thawed; tissue Oceanix Biosciences Corporation, Hanover, Md., USA; host or cells: human platelet membranes
Method in brief: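 Competition binding of [3H]paroxetine to human platelet membranes in Tris-HCl 50 mM, 120 mM NaCl, 5 mM KCl, with filtration and scintillation counting.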

hα2C receptor = target: T2, hα2C receptor (Homo sapiens, UniProt P18825); test: Radioligand binding experiment for α2C-adrenoceptor ([3H]raulwolscine, CHO cell membranes); conditions: [3H]raulwolscine binding; for IC50: read-out: h-α2C pIC50 (converted)
T2 construct: expressed in transfected cells; host or cells: CHO cells, stably transfected; membrane preparation
T2 sequence (P18825 1-462): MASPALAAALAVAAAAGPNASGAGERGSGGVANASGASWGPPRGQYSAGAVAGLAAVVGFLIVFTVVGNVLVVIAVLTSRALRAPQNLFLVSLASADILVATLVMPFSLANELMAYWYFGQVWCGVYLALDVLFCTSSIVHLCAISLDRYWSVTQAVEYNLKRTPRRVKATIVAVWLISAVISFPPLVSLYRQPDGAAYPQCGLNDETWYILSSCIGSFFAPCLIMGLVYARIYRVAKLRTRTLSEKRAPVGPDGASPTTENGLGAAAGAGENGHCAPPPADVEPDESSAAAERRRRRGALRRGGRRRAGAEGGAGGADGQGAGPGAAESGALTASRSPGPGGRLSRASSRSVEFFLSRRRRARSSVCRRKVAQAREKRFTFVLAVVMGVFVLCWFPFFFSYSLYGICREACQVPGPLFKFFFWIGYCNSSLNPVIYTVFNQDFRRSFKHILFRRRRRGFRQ

hα2A receptor = target: T3, hα2A receptor (Homo sapiens, UniProt P08913); test: Radioligand binding experiment for α2A-adrenoceptor ([3H]raulwolscine, CHO cell membranes); conditions: [3H]raulwolscine binding; for IC50: read-out: h-α2A pIC50 (converted)
T3 construct: expressed in transfected cells; host or cells: CHO cells, stably transfected; membrane preparation
T3 sequence (P08913 1-465): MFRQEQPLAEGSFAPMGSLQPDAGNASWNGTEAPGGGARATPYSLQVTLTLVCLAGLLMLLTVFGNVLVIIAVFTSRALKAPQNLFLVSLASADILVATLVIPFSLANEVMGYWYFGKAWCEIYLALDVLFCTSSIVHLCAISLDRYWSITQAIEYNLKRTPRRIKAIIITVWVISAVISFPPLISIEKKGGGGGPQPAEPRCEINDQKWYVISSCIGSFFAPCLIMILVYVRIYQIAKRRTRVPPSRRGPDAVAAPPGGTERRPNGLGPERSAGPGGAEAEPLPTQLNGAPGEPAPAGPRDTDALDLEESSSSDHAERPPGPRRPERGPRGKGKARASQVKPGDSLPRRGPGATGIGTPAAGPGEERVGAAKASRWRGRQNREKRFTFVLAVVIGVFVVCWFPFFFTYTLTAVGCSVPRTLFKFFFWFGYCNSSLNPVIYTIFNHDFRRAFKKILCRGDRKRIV

T1 sequence (P31645 whole entry): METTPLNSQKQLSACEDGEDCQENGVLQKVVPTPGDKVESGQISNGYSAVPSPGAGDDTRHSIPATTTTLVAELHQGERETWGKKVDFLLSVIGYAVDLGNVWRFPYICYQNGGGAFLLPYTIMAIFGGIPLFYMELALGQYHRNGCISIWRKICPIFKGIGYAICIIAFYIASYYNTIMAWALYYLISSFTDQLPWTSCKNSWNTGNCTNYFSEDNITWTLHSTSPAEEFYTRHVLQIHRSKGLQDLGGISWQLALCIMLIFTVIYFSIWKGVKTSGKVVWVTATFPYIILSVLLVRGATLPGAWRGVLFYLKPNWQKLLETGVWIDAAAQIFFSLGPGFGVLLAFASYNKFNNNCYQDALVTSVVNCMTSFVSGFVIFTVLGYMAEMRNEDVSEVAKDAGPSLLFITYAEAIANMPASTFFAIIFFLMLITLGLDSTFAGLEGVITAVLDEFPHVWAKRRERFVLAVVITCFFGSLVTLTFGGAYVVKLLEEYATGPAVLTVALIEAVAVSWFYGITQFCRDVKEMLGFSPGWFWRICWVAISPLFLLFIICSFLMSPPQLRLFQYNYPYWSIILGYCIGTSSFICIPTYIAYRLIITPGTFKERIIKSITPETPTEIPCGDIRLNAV

SMILES	IC50 (5HT-Transporter)	IC50 (hα2C receptor)	IC50 (hα2A receptor)	h-5HTT pIC50 (5HT-Transporter)	h-α2C pIC50 (hα2C receptor)	h-α2A pIC50 (hα2A receptor)
C/C(=C\c1ccccc1)CN1CCC(Nc2nccn(CCCN(Cc3ccccc3)Cc3ccccc3)c2=O)CC1 [1-71]	398 nM	5.01 nM	100 nM			
COC(=O)CN(C)Cc1cccc(-n2ccnc(NC3CCN(C/C(C)=C/c4ccccc4)CC3)c2=O)c1 [1-98]				6.0	8.9	7.5
C/C(=C\c1ccccc1)CN1CCC(Nc2nccn(CCCN(CC(=O)c3ccccc3)Cc3ccccc3)c2=O)CC1 [1-90]	631 nM	2 nM	126 nM			
C/C(=C\c1ccccc1)CN1CCC(Nc2nccn(-c3cccc(N(Cc4ccccc4)c4ccccc4)c3)c2=O)CC1 [1-70]	158 nM	20 nM	31.6 nM			
C/C(=C\c1ccccc1)CN1CCC(Nc2nccn(CCCN(c3ccccc3)S(=O)(=O)c3ccccc3)c2=O)CC1 [1-168]	200 nM	10 nM	158 nM			
C/C(=C\c1ccccc1)CN1CCC(Nc2nccn(CC(=O)NCc3ccc(F)cc3)c2=O)CC1 [1-55]	316 nM	1.26 nM	63.1 nM			
C/C(=C\c1ccccc1)CN1CCC(Nc2nccn(Cc3ccc(CNS(=O)(=O)/C=C/c4ccccc4)cc3)c2=O)CC1 [1-167]	631 nM	39.8 nM	200 nM			
COCCOCCn1ccnc(N(C)C2CCN(C/C(C)=C/c3ccccc3)CC2)c1=O [15-5]	2000 nM	39.8 nM	126 nM			
C/C(=C\c1ccccc1)CN1CCC(Nc2nccn(Cc3ccc(CNC(=O)c4ccncc4)cc3)c2=O)CC1 [1-154]	398 nM	39.8 nM	126 nM			
COCC(=O)NCc1ccc(Cn2ccnc(NC3CCN(C/C(C)=C/c4ccccc4)CC3)c2=O)cc1 [1-93]	1260 nM	50.1 nM	158 nM			
C/C(=C\c1ccccc1)CN1CCC(Nc2nccn(-c3cccc(NCCc4ccccc4)c3)c2=O)CC1 [1-58]	398 nM	6.31 nM	25.1 nM			
CCCCN(Cc1ccccc1)C(=O)Cn1ccnc(NC2CCN(C/C(C)=C/c3ccccc3)CC2)c1=O [1-66]	794 nM	12.6 nM	79.4 nM			
C/C(=C\c1ccccc1)CN1CCC(Nc2nccn(CCCN(C)C)c2=O)CC1 [1-15]	7940 nM	3.98 nM	50.1 nM			
C/C(=C\c1ccccc1)CN1CCC(Nc2nccn(CC(=O)N(C)C3CCCCC3)c2=O)CC1 [1-20]	1000 nM	3.98 nM	79.4 nM			
C/C(=C\c1ccccc1)CN1CCC(Nc2nccn(CC(=O)N(CCN3CCOCC3)Cc3ccc(F)cc3)c2=O)CC1 [1-151]	1260 nM	2 nM	126 nM			
C/C(=C\c1ccccc1)CN1CCC(N(C)c2nccn(CC3CCCCO3)c2=O)CC1 (stereo not drawn) [15-7]	3160 nM	39.8 nM	79.4 nM			
C/C(=C\c1ccccc1)CN1CCC(Nc2nccn(-c3cccc(CNCCN(C)C)c3)c2=O)CC1 [1-106]				6.1	8.8	7.9
CCOC(=O)CN(Cc1ccccc1)C(=O)Cn1ccnc(NC2CCN(C/C(C)=C/c3ccccc3)CC2)c1=O [1-101]	1580 nM	6.31 nM	126 nM			
C/C(=C\c1ccccc1)CN1CCC(Nc2nccn(CC(=O)N(C)c3ccccc3)c2=O)CC1 [1-41]	398 nM	3.16 nM	100 nM			
C/C(=C\c1ccccc1)CN1CCC(Nc2nccn(CCCN(Cc3ccccc3)C(=O)Cc3ccccc3)c2=O)CC1 [1-89]	794 nM	12.6 nM	200 nM			
C/C(=C\c1ccccc1)CN1CCC(Nc2nccn(CC(=O)N(C)CCO)c2=O)CC1 [1-21]	2510 nM	20 nM	316 nM			
COC(=O)CCNCc1cccc(-n2ccnc(NC3CCN(C/C(C)=C/c4ccccc4)CC3)c2=O)c1 [1-95]				5.9	8.9	7.6
C/C(=C\c1ccccc1)CN1CCC(Nc2nccn(CC(=O)N(C)CCN(C)C)c2=O)CC1 [1-108]	6310 nM	1.58 nM	50.1 nM			
CCN(CC)C(=O)NCc1ccc(-n2ccnc(NC3CCN(C/C(C)=C/c4ccccc4)CC3)c2=O)cc1 [1-117]				6.3	8.3	6.7
CC(=O)NCCNC(=O)Cn1ccnc(NC2CCN(C/C(C)=C/c3ccccc3)CC2)c1=O [1-114]	3980 nM	12.6 nM	200 nM			
C/C(=C\c1ccccc1)CN1CCC(Nc2nccn(CC(=O)N(CCCN3CCCC3)Cc3ccc(F)cc3)c2=O)CC1 [1-137]	1000 nM	0.794 nM	12.6 nM			
C/C(=C\c1ccccc1)CN1CCC(Nc2nccn(-c3ccc(N)cc3)c2=O)CC1 [1-5]	2000 nM	6.31 nM	100 nM			

Second part, the compound after the results:

IC50 (5HT-Transporter)	IC50 (hα2C receptor)	IC50 (hα2A receptor)	h-5HTT pIC50 (5HT-Transporter)	h-α2C pIC50 (hα2C receptor)	h-α2A pIC50 (hα2A receptor)	SMILES
501 nM	50.1 nM	126 nM				C/C(=C\c1ccccc1)CN1CCC(Nc2nccn(Cc3ccc(Br)cc3)c2=O)CC1 [5-16]
316 nM	126 nM	316 nM				C/C(=C\c1ccccc1)CN1CCC(Nc2nccn(Cc3ccc(-c4ccccc4)cc3)c2=O)CC1 [5-32]
7940 nM	39.8 nM	158 nM				C/C(=C\c1ccccc1)CN1CCC(Nc2nccn(CC(=O)N3CCN(C(=O)C4CCCO4)CC3)c2=O)CC1 (stereo not drawn) [2-38]
501 nM	10 nM	39.8 nM				C/C(=C\c1ccccc1)CN1CCC(Nc2nccn(-c3ccc(N4CCCCC4)cc3)c2=O)CC1 [2-8]
398 nM	251 nM	251 nM				O=c1c(NC2CCN(C/C=C/c3ccccc3)CC2)nccn1Cc1ccc2ccccc2c1 [16-18]
> 10000 nM	158 nM	1580 nM				CN(C)CCn1ccnc(NC2CCN(C/C=C/c3ccccc3)CC2)c1=O [16-1]
1260 nM	79.4 nM	158 nM				C/C(=C\c1ccccc1)CN1CCN(c2nccn(Cc3ccc(CNC(=O)OC(C)(C)C)cc3)c2=O)CC1 [8-4]
1000 nM	126 nM	501 nM				O=c1c(NC2CCN(C/C=C/c3ccccc3)CC2)nccn1Cc1ccc2ccccc2n1 [16-21]
5010 nM	7.94 nM	126 nM				C/C(=C\c1ccccc1)CN1CCC(Nc2nccn(CC(=O)N3CCC(O)(c4ccccc4)CC3)c2=O)CC1 [2-14]
501 nM	31.6 nM	158 nM				C/C(=C\c1ccccc1)CN1CCC(Nc2nccn(Cc3ccccc3F)c2=O)CC1 [5-11]
> 10000 nM	316 nM	1000 nM				CC(=O)Cn1ccnc(NC2CCN(C/C=C/c3ccccc3)CC2)c1=O [16-24]
> 10000 nM	631 nM	3160 nM				COCCn1ccnc(NC2CCN(C/C=C/c3ccccc3)CC2)c1=O [16-9]
> 10000 nM	15.8 nM	126 nM				CCOC(=O)Cn1ccnc(NC2CCN(C/C(C)=C/c3ccccc3)CC2)c1=O [3-16]
501 nM	15.8 nM	31.6 nM				COC(=O)c1ccc(-n2ccnc(NC3CCN(C/C(C)=C/c4ccccc4)CC3)c2=O)cc1 [3-12]
200 nM	12.6 nM	50.1 nM				C/C(=C\c1ccccc1)CN1CCC(Nc2nccn(Cc3ccccc3Br)c2=O)CC1 [5-14]
631 nM	5.01 nM	100 nM				C/C(=C\c1ccccc1)CN1CCC(Nc2nccn(-c3ccc(C(=O)N4CCN(c5ncccn5)CC4)cc3)c2=O)CC1 [2-34]
7940 nM	20 nM	316 nM				C/C(=C\c1ccccc1)CN1CCC(Nc2nccn(CCN3CCOCC3)c2=O)CC1 [2-39]
3980 nM	31.6 nM	200 nM				C/C(=C\c1ccccc1)CN1CCC(Nc2nccn(Cc3ccccn3)c2=O)CC1 [6-13]
794 nM	15.8 nM	79.4 nM				COC(=O)CCCCn1ccnc(NC2CCN(C/C(C)=C/c3ccccc3)CC2)c1=O [3-8]
3160 nM	20 nM	126 nM				C/C(=C\c1ccccc1)CN1CCC(Nc2nccn(Cc3csc(C)n3)c2=O)CC1 [6-6]
